# Where two headings read alike, the source gives them in different places.
# Assays:
# [1] = 1 μM, 30 minutes, 37° C., NADPH
# Protocol: 2) Microsomal Stability Evaluation
# (§2) Four liver microsomes (Human, Dog, Rat, Mouse 0.5 mg/ml) with a 0.1 M phosphate buffer solution (pH 7.4), and the arylethene derivative of the present invention were added to a concentration of 1 μM, culturing was performed at 37° C. for 5 minutes in advance, a NADPH regeneration system solution was added thereto, and culturing was performed at 37° C. for 30 minutes. Thereafter, in order to complete the reaction, an acetonitrile solution containing an internal standard material (chlorpropamide) was added thereto, centrifugation (14,000 rpm, 4° C.) was performed for 5 minutes, and a supernatant was injected into a LC-MS/MS system to analyze the substrate drug, thereby evaluating metabolism stability to the arylethene derivative of the present invention.
# in vitro = in vitro ADME; design: Papp at 5 h: dose or concentration left out as unconfirmed; conditions: PBS pH 7.4, 25° C.; for Permeability Pampa: 5 hours
# ERRγ = assay type: cell-based
# [2] = 1 μM, 30 minutes, 37° C., NADPH; remark: listed apart in the source
# [3] = target: GST-bound ERR gamma ligand-binding domain (LBD) (Homo sapiens (Human), UniProt P62508); assay: ERRγ binding assay (inverse agonist assay), TR-FRET
# Protocol: 1) ERRγ Binding Assay (Inverse Agonist Assay)
# (§3) The arylethene derivative of the present invention was sequentially added to a 384 well plate from a concentration of 10 μM to a final concentration of two-fold dilution. […] After all reagents were added, a reaction was carried out with gentle shaking at 20° C. for 1 hour, and after the reaction, a binding activity was measured by a TR-FRET method.
# [4] = 1 μM, 30 minutes, 37° C., NADPH; remark: listed apart in the source
# Protocol: 2) Microsomal Stability Evaluation
# as §2
# [5] = 1 μM, 30 minutes, 37° C., NADPH; remark: listed apart in the source
# Protocol: 2) Microsomal Stability Evaluation
# as §2
# CYP3A4 = CYP3A4 (Homo sapiens (Human), UniProt P08684); assay: Cytochrome P450 activity inhibition, CYP3A4; assay type: in vitro ADME; conditions: 10 μM, human liver microsomes, Midazolam substrate
# Source text: (§1) 1) Cytochrome P450 (CYP450) Activity Inhibition Evaluation
# CYP2C9 = CYP2C9 (Homo sapiens (Human), UniProt P11712); assay: Cytochrome P450 activity inhibition, CYP2C9; assay type: in vitro ADME; conditions: 10 μM, human liver microsomes, Diclofenac substrate
# Source text: as §1
# CYP2C19 = CYP2C19 (Homo sapiens (Human), UniProt P33261); assay: Cytochrome P450 activity inhibition, CYP2C19; assay type: in vitro ADME; conditions: 10 μM, human liver microsomes, S-mephenytoin substrate
# Source text: as §1
# in vivo = assay type: in vivo; conditions: rat; for Cmax: read-out: Cmax
# Protocol: An oral administration group fasts the day before.
# Blood of each animal is collected at 0 hour.
# Into a tail vein of an intravenous administration group (IV), a drug is injected at a dose of 1 mg/kg (syringe).
# To an oral administration group (PO), a drug is orally administered at a dose of 10 mg/kg (oral zondec)
# After administration, blood of the intravenous administration group was collected through a jugular vein 8 times at 0.08, 0.25, 0.5, 1, 2, 4, 6, and 8 hours. One collected blood amount is 400 to 500 ul.
# After administration, blood of the oral administration group was collected through a jugular vein 6 times at 0.25, 0.5, 1, 4, 6 and 8 hours. One collected blood amount is 400 to 500 ul.
# Supernatant plasma is collected by a centrifuge.
# The supernatant plasma was injected into a LC-MS/MS system and the drug is analyzed.
# CYP1A2 = CYP1A2 (Homo sapiens (Human), UniProt P05177); assay: Cytochrome P450 activity inhibition, CYP1A2; assay type: in vitro ADME; conditions: 10 μM, human liver microsomes, Phenacetin substrate
# Source text: as §1
# CYP2D6 = CYP2D6 (Homo sapiens (Human), UniProt P10635); assay: Cytochrome P450 activity inhibition, CYP2D6; assay type: in vitro ADME; conditions: 10 μM, human liver microsomes, Dextromethorphan substrate
# Source text: as §1
# GST-bound ERR alpha LBD = GST-bound ERR alpha LBD (Homo sapiens (Human), UniProt P11474); conditions: TR-FRET, PGC1a coactivator; read-out: Binding Assay, IC50 ERRα
# Protocol: as §3
# [6] = target: GST-bound ER alpha ligand-binding domain (LBD) (Homo sapiens (Human), UniProt P03372); assay: biochemical; conditions: TR-FRET, beta-estradiol 4 nM as agonist; read-out: Binding Assay, IC50 ERα
# Protocol: as §3
# hERG channel = hERG channel (Homo sapiens (Human), UniProt Q12809); conditions: read-out: hERG IC50; fluorescence polarization assay
# [7] = activity relative to reference compound GSK5182, 10 μM
# [8] = TR-FRET, PGC1a coactivator, read-out: Binding Assay, IC50 ERRγ
# Chain of CYP2C19 (P33261 whole entry): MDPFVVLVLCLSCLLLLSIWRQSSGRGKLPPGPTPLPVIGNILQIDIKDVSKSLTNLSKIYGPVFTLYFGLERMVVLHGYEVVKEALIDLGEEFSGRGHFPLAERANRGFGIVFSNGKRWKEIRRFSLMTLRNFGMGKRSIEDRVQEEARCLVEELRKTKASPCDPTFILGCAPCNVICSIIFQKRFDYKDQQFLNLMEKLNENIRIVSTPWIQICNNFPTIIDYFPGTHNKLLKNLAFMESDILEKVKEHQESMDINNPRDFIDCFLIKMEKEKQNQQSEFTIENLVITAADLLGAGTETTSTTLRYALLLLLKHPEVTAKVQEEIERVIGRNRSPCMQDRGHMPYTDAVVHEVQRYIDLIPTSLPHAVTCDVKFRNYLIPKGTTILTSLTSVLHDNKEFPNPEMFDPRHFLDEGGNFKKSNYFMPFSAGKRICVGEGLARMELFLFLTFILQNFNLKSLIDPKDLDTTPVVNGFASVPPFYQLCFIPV
# Chain of CYP2C9 (P11712 whole entry): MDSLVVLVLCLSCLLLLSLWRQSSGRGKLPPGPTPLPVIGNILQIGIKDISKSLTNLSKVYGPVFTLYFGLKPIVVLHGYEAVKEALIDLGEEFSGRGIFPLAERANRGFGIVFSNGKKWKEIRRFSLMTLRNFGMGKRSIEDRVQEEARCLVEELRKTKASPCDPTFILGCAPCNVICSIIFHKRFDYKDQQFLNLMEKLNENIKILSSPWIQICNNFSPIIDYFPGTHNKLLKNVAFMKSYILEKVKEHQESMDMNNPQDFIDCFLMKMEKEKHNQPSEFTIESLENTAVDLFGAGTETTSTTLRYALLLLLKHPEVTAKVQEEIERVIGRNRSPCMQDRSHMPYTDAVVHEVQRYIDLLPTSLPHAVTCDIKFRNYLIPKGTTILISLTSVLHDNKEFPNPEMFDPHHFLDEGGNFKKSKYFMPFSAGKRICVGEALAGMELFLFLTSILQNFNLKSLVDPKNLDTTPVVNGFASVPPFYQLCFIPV
# Chain of GST-bound ERR alpha LBD (P11474 193-421): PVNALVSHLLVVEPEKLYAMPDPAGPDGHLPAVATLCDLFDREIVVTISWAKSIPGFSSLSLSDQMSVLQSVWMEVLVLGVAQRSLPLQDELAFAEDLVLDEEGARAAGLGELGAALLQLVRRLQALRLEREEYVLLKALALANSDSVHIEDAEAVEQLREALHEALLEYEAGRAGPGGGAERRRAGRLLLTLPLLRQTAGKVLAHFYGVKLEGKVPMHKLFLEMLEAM
# Chain of CYP3A4 (P08684 whole entry): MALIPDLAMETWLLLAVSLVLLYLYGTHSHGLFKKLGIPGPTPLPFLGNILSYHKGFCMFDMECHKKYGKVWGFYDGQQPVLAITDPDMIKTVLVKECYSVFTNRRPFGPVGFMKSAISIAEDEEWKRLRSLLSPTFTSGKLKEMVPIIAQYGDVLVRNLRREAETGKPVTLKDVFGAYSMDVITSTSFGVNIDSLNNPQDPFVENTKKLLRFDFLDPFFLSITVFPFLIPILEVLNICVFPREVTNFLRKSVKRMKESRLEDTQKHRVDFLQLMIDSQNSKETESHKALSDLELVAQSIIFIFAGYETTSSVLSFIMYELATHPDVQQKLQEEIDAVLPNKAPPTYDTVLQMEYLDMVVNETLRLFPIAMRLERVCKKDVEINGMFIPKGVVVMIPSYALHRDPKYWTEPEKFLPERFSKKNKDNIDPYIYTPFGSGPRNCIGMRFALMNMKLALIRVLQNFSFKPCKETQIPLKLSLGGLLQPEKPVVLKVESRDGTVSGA
# Chain of GST-bound ERR gamma ligand-binding domain (LBD) (P62508 233-457): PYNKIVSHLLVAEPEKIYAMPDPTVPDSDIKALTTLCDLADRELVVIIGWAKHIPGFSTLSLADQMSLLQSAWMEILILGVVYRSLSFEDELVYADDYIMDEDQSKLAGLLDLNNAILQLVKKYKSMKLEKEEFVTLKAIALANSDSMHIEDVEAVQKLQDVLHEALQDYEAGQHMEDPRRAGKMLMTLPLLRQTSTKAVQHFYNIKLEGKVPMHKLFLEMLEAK
# Chain of CYP1A2 (P05177 whole entry): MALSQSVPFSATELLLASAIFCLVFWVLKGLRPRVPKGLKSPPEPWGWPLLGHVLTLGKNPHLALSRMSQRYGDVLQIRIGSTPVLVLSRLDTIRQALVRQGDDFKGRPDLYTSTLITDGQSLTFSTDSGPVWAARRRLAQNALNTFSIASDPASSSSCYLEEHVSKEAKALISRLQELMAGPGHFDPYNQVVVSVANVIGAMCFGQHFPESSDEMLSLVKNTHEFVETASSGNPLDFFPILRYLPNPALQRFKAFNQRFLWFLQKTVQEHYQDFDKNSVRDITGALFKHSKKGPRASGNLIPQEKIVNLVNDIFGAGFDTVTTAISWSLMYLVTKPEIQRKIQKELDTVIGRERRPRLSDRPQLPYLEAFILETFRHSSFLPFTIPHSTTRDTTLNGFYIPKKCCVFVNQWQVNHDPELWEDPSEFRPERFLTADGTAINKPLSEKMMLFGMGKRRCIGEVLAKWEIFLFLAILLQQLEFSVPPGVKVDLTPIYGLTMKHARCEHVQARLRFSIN
# Chain of CYP2D6 (P10635 whole entry): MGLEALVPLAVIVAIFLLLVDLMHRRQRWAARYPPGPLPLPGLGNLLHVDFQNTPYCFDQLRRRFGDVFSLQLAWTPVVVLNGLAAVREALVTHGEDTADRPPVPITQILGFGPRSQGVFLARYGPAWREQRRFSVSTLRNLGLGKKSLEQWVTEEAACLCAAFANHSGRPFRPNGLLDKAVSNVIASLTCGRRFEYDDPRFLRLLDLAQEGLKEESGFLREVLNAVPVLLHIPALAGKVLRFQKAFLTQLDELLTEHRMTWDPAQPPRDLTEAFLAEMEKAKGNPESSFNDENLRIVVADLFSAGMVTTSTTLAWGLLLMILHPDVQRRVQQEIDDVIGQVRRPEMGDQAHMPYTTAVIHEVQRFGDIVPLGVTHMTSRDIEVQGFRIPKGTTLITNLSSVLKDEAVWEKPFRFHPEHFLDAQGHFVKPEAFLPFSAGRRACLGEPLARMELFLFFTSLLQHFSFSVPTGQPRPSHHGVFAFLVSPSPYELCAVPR
# Chain of GST-bound ER alpha ligand-binding domain (LBD) (P03372 whole entry, looked up, the tested form may be a part): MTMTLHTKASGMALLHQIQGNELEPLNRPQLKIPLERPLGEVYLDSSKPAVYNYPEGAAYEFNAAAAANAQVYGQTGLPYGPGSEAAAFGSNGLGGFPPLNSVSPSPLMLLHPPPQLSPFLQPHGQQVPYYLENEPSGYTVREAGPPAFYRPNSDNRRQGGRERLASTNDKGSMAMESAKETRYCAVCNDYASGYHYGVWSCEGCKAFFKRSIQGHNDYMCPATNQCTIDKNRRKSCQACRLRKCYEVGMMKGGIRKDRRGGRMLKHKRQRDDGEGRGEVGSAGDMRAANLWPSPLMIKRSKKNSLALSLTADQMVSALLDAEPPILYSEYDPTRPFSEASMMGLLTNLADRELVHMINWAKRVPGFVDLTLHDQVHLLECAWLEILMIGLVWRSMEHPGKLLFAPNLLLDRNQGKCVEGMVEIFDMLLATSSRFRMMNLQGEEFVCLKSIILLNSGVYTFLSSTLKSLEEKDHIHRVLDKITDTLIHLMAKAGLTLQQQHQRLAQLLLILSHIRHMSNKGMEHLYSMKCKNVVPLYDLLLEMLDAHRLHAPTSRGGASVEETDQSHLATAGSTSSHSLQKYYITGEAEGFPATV
Compound,MS(Microsomal Stability) (%) human [1],MS(Microsomal Stability) (%) dog [2],MS(Microsomal Stability) (%) rat [4],MS(Microsomal Stability) (%) mouse [5],Permeability Pampa (in vitro),CYP inhibition (% of control) 3A4 (CYP3A4),CYP inhibition (% of control) 2C9 (CYP2C9),CYP inhibition (% of control) 2C19 (CYP2C19),CYP inhibition (% of control) 1A2 (CYP1A2),CYP inhibition (% of control) 2D6 (CYP2D6),IC50 (GST-bound ERR alpha LBD),IC50 [6],"IC50 [3, 8]",other results
"CC(C)N1CCN(c2ccc(/C(=C(/CCCO)c3ccccc3)c3ccc(NS(C)(=O)=O)cc3)cc2)CC1 [Compound 27a, (E)-N-(4-(5-hydroxy-1-(4-(4-isopropylpiperazin-1-yl)phenyl)-2-phenylpent-1-en-1-yl)phenyl)methanesulfonamide]",66.2%,50.3%,65.0%,32.7%,,,,,,,,,,"Papp at 5 h (in vitro; PAMPA, read-out: Permeability Pampa): 2.22 ×10⁻⁶ cm/s; Functional Assay at 10 μM (% of control), Cpds (ERRγ): 2.1 % of control; Functional Assay, Cpds/Ref 5182 (ERRγ): 0.77; IC50 [3]: 26 nM"
CC(C)N1CCN(c2ccc(/C(=C(/CCCO)c3ccccc3)c3ccc(Br)cc3)cc2)CC1 [Compound 18e],,,,,1.11 10^−6 cm/s,84 % of control,91.3 % of control,84.6 % of control,>100 % of control,>100 % of control,> 10000 nM,> 10000 nM,,"Functional Assay at 10 μM (% of control), Cpds (ERRγ; 10 μM, 24 hours, AD293): 2.6 % of control; Functional Assay, Cpds/Ref 5182 (ERRγ; [7]): 0.89; AUCINF (in vivo; IV, 1 mg/kg): 0.06 μMh; AUCall (in vivo; IV, 1 mg/kg): 0.06 μMh; Vss (in vivo; IV, 1 mg/kg): 39.1 L/kg; t1/2 (in vivo; IV, 1 mg/kg): 0.8 h; AUCINF (in vivo; PO, 10 mg/kg): 0.09 μMh; AUCall (in vivo; PO, 10 mg/kg): 0.07 μMh; BA (in vivo; PO, 10 mg/kg): 11.5%; Tmax (in vivo; PO, 10 mg/kg): 2.8 h; Cmax (in vivo; PO, 10 mg/kg): 10 nM"
CCN1CCN(c2ccc(/C(=C(/CCCO)c3ccccc3)c3ccc(C)cc3)cc2)CC1 [Compound 18j],67.9%,58.0%,62.8%,54.9%,1.61 10^−6 cm/s,77.6 % of control,87 % of control,74 % of control,>100 % of control,86.6 % of control,> 10000 nM,> 10000 nM,25 nM,"Functional Assay at 10 μM (% of control), Cpds (ERRγ; 10 μM, 24 hours, AD293): 3.28 % of control; Functional Assay, Cpds/Ref 5182 (ERRγ; [7]): 1.21; AUCINF (in vivo; IV, 1 mg/kg): 0.60 μMh; AUCall (in vivo; IV, 1 mg/kg): 0.55 μMh; Cl(observed)/F (in vivo; IV, 1 mg/kg): 59 mL/min/kg; Vss (in vivo; IV, 1 mg/kg): 9.8 L/kg; t1/2 (in vivo; IV, 1 mg/kg): 3.2 h; AUCINF (in vivo; PO, 10 mg/kg): 1.61 μMh; AUCall (in vivo; PO, 10 mg/kg): 1.07 μMh; BA (in vivo; PO, 10 mg/kg): 19.6%; Tmax (in vivo; PO, 10 mg/kg): 3 h; Cmax (in vivo; PO, 10 mg/kg): 210 nM"
CCN1CCC(c2ccc(C(=C(CCCO)c3ccccc3)c3cccc(O)c3)cc2)CC1 [Compound 22ae],48.4%,33.7%,32.2%,21.5%,,81.5 % of control,>100 % of control,>100 % of control,59.4 % of control,68.4 % of control,,,,
CC(C)N1CCN(c2ccc(/C(=C(/CCCO)c3ccccc3)c3ccc(N)cc3)cc2)CC1 [Compound 26b],49.1%,40.6%,31.4%,14.3%,,60.9 % of control,92.5 % of control,98.7 % of control,99.2 % of control,81.9 % of control,,,,
OCCC/C(=C(\c1ccc(O)cc1)c1ccc(N2CCN(C3CCC3)CC2)cc1)c1ccccc1 [Compound 22q],63.7%,43.8%,67.6%,17.6%,0.77 10^−6 cm/s,81 % of control,77.7 % of control,92.8 % of control,99.9 % of control,77.6 % of control,> 10000 nM,1660 nM,53 nM,
OCCC/C(=C(\c1ccc(O)cc1)c1ccc(C2CN(C3CC3)C2)cc1)c1ccccc1 [Compound 22d],57.6%,,60.2%,,0.38 10^−6 cm/s,66.1 % of control,>100 % of control,>100 % of control,>100 % of control,82.5 % of control,,,,IC50 (hERG channel): 6000 nM
OCCC/C(=C(\c1ccc(O)cc1)c1ccc(N2CCN(C3CCCCC3)CC2)cc1)c1ccccc1 [Compound 22p],72.3%,77.7%,75.3%,40.4%,0.2 10^−6 cm/s,90.6 % of control,81.8 % of control,61.5 % of control,88.1 % of control,79.6 % of control,9700 nM,2120 nM,99 nM,

# Reference: patent US10934303B2, “Aryl ethene derivative and pharmaceutical composition containing same as active ingredient” (priority 2016, dated 2021)
